Patent US11110158B2, “Prostate-associated antigens and vaccine-based immunotherapy regimens” (Pfizer Inc., priority 2012, dated 2021)
Where “and” joins values, the source holds several entries; their conditions need not be identical. Identical values can stand only once.

Columns and labels:
rhesus PSMA = assay: IFNγ ELISPOT of PBMCs, PSMA vaccine with or without anti-CTLA-4 in Indian rhesus macaques, rhesus PSMA recall antigens; assay type: in vivo; conditions: Group 2, vaccine + CpG 3 mg intradermal + aCTLA4 10 mg/kg intravenous (IV), normalized to 1e6 PBMCs, one cell per animal
Source text: Three groups of male Indian rhesus macaques, five to six (#1 to 5 or 6) per each test group, were immunized with a nucleic acid (SEQ ID NO: 10) that encodes a human PSMA modified antigen (SEQ ID NO: 9) delivered by adenovirus (1e11 V.P. injected intramuscularly) followed by 2 DNA immunizations (8 actuations/immunization, 4 actuations per each right and left side of the lower abdomen) by PMED with 6 and 9 week intervals respectively. Animals in Groups 2 and 3 additionally received bilateral intradermal injections of 3 mg of CpG (PF-03512676) subsequently after the PMED immunization in proximity to each inguinal draining lymph node. Group 2 also received intravenous injections of anti-CTLA-4 monoclonal antibody (CP-675, 206) at 10 mg/kg and group 3 received intradermal injections of anti-CTLA-4 monoclonal antibody (CP-675, 206) at 5 mg/kg in proximity to each left and right inguinal vaccine draining lymph node at the time of the second PMED immunization.
Peripheral blood samples were collected from each animal sixteen days after the last PMED immunization. Peripheral blood mononuclear cells (PBMCs) were isolated from the samples and were subjected to an IFNγ ELISPOT assay to measure the PSMA specific T cell responses. […] The number of IFNγ spot forming cells (SFC) were counted by CTL reader. […]

LNCaP = assay: FACS cell binding assay of sera from PSMA vaccinated mice; assay type: cell-based, human; conditions: Table 4
Method: Various prostate cancer cell lines were used for this assay. […] The cell binding assay was performed as follows: LNCaP and PC3 cells (or TRAMP-C2PSMA and TRAMP C2) were plated in separate wells at 2×10^5 cells/well (50 μL) in a 96 well plate. Sera from PSMA vaccinated mice, as described in […], were diluted 1:50 with FACS buffer (PBS pH 7.4, 1% FBS, 25 mM HEPES, and 1 mM EDTA). Fifty μL of diluted J591-A antibody (mouse anti-human PSMA antibody, clone J591-A from ATCC) were added to the diluted test sera or FACS buffer (unstained samples) to achieve the appropriate cell numbers per well in the staining plate. All was mixed by pipetting and then kept on ice for 20 min. The cells were washed twice with FACS buffer; each wash was by centrifugation at 1200 RPM at 5° C. for 5 minutes. Fifty μL of secondary staining solution were added containing a 1:200 dilution of PE-labeled goat anti-mouse Ig (Sigma, cat P9670-5) and 0.25 μl of Live/Dead Aqua stain (Invitrogen, cat. #L34957) to each of the cell containing wells and kept on ice for 20 min. Cells were washed twice as described earlier. Washed cell pellets were resuspended in 125 uL FACS buffer and then 75 uL 4% paraformaldehyde solution were added to each well to fix the cells. Samples were kept on ice and protected from light for at least 15 min. Samples were run on FACS Canto II. Ten thousand live cell events were recorded for each sample. […]

native PSMA protein = assay: Sandwich ELISA, anti-PSMA antibody titers in serum of vaccinated Pasteur mice; assay type: in vivo, mouse
Method: The standard sandwich ELISA assay was done using an automated Biotek system. The plates were coated with 25 μl of native PSMA protein at a 1.0 μg/ml in PBS overnight, the plates were washed and blocked with 35 μl/well of 5% FBS 1×PBS-T 0.05% and incubated for 1 hour at RT on a shaker at 600 RPM. The blocking media was decanted and serial dilute vaccinated mouse serum with half log dilutions in 5% FBS 1×PBS-T 0.05% starting at 1:100 or 1:500 were made and 25μ samples of the diluted serum were added to each well of the 96 well plates and incubated for 1 hour at RT on a shaker at 600 RPM. The plates were washed 3 times with 75 ul/well in 1×PBS-T 0.05% using the Biotek ELx405, and 25 μl/well of 1:30,000 diluted anti-mouse IgG HRP (AbCam cat #ab20043) secondary antibody (diluted in 1×PBS-T 0.05%) was added to each well of the 96 well plates and incubated for 1 hour at RT on a shaker at 600 RPM. Plates were washed 5× with 75 ul/well in 1×PBS-T 0.05% using the Biotek EIx405. TMB Substrate was diluted at 1:10 and 25 μl was added to each well and incubated at RT for 30 minutes. The reaction was stopped by adding 12.5 μl/well of 1M H2SO4. Plates were read using the Spectramax Plus at 450 nm wavelength. Data were reported as titers and these could be reported as first positive (average and both values above 5% FBS PBS+3 time Standard Deviation) and/or as calculated titers at OD of 0.5 or 1.0. Serum from irrelevant vaccinated mice were used as negative controls.
Eight- to 10-week old Pasteur mice were immunized using PMED method with the various plasmid DNAs expressing shuffled PSMA modified antigens in a prime/boost/boost regimen, two weeks apart between each vaccination as described in Example 1F. Antigen specific T and B cell responses were measured 7 days after the last immunization in an interferon-gamma (IFNγ) ELISPOT assay and sandwich ELISA respectively.

Tremelimumab: fully human IgG2 anti-CTLA-4 monoclonal antibody, CAS 745013-59-6, SEQ ID NOs:42 and 43
PSMA specific IFNγ SFC, recall antigen R1 (rhesus PSMA): 6.3 SFC and 0.0 SFC and 22.5 SFC and 26.3 SFC and 97.5 SFC | PSMA specific IFNγ SFC, recall antigen rPSMA protein (rhesus PSMA): 0.0 SFC and 3.8 SFC and 1.3 SFC and 2.5 SFC and 20.0 SFC

PSMA modified: membrane-bound polypeptide of amino acids 15-750 of human PSMA, SEQ ID NO: 9; tested as DNA construct
Fold over background Average (+/−SD) (LNCaP; binding of serum anti-PSMA antibodies (1:50) to human prostate cancer cells LNCaP by FACS, background PC3): 6.01 (0.38) | # of positive (LNCaP; mice with serum binding to LNCaP by FACS / N): 4/4 | ELISA (OD = 1) Average (+/−SD) (native PSMA protein; Table 3, anti-PSMA antibody titer calculated at OD of 1, Pasteur mice): 1067 (518) | # of positive (native PSMA protein; Table 3, mice with anti-PSMA antibody response by ELISA / N): 4/4 | ELISA (OD = 0.5) (native PSMA protein; Table 10, anti-PSMA antibody titer calculated at OD of 0.5, Pasteur mice): 1159 (802) | # of positive (native PSMA protein; Table 10, mice with anti-PSMA antibody response by ELISA / mice tested): 7/7
